# Test results reported in patent publication US11089783B2, “2-(het)aryl-substituted fused heterocycle derivatives as pesticides” (Bayer Aktiengesellschaft, priority 2017, dated 2021).
# Columns and labels:
# Type in all cases: in vivo
# Musca domestica = Musca domestica test; conditions: 100 ppm, adult houseflies, after 2 days
# Protocol: Solvent: dimethyl sulfoxide To produce a suitable active ingredient formulation, 10 mg of active ingredient are mixed with 0.5 ml of dimethyl sulfoxide, and the concentrate is diluted with water to the desired concentration. Vessels containing a sponge treated with sugar solution and the active ingredient formulation of the desired concentration are populated with 10 adult houseflies (Musca domestica). After 2 days, the kill in % is determined. 100% means that all of the flies have been killed; 0% means that none of the flies have been killed.
# Meloidogyne incognita [1] = assay: Meloidogyne incognita test (MELGIN); conditions: Meloidogyne incognita, 336 h, 14 days (14 dat), read-out: efficacy (nematicidal, gall formation)
# Summary of the method: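 Sand with lettuce seeds, M. incognita egg/larvae suspension and aqueous dilution of compound concentrate. Nematicidal efficacy scored from gall (root-knot) formation after 14 days or the desired time, as % relative to untreated control (100% = no galls; 0% = as control).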
# Myzus persicae = Myzus persicae oral test; conditions: 120 h, after 5 days, read-out: efficacy
# Summary of the method: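 Compound solution in IPL41 insect medium with sugar was sealed under parafilm, through which a mixed population of green peach aphids fed. Mortality was scored after 5 days as % efficacy, with 100% meaning all aphids killed.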
# Aphis gossypii = Aphis gossypii spray test (APHIGO), cotton plants; conditions: Aphis gossypii, 144 h, 4 ppm, 6 dat, read-out: % efficacy
# Summary of the method: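 Cotton plants (Gossypium hirsutum) heavily infested with cotton aphids were sprayed with the active ingredient formulated in emulsifier-containing water (1000 ppm emulsifier), with ammonium salt or penetrant added at 1000 ppm where required. After the set time, percent kill was determined, where 100% means all aphids dead.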
# Phaedon cochleariae = Phaedon cochleariae spray test (PHAECO S), cabbage leaves; conditions: Phaedon cochleariae, 168 h, 7 dat, read-out: % efficacy
# Protocol: [table] To produce an appropriate active ingredient formulation, 1 part by weight of active ingredient is dissolved with the specified parts by weight of solvent and made up with water containing an emulsifier concentration of 1000 ppm until the desired concentration is attained. To produce further test concentrations, the mixture is diluted with emulsifier-containing water. If addition of ammonium salts or/and penetrants is required, these are each added to the preparation solution in a concentration of 1000 ppm. Cabbage leaves (Brassica oleracea) are sprayed with an active ingredient formulation of the desired concentration and populated with larvae of the mustard beetle (Phaedon cochleariae). After the desired time, the kill in % is determined. 100% means that all beetle larvae have been killed; 0% means that no beetle larvae have been killed.
# Nilaparvata lugens = Nilaparvata lugens spray test (NILALU); conditions: Nilaparvata lugens, 96 h, 4 g/ha, 4 dat, read-out: % efficacy
# Summary of the method: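 Rice plants (Oryza sativa) sprayed with compound formulated in solvent and water with 1000 ppm emulsifier, ammonium salts/penetrants at 1000 ppm if needed, then infested with brown planthopper larvae. After the set time, efficacy scored as % planthoppers killed (100% all, 0% none).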
# Spodoptera frugiperda = Spodoptera frugiperda spray test; conditions: 100 g/ha, after 6 days
# Protocol: [table] To produce a suitable active ingredient formulation, 1 part by weight of active ingredient is dissolved with the specified parts by weight of solvent and made up to the desired concentration with water containing an emulsifier concentration of 1000 ppm. To produce further test concentrations, the formulation is diluted with emulsifier-containing water. Leaf discs of maize (Zea mays) are sprayed with an active ingredient formulation of the desired concentration and, after drying, populated with caterpillars of the armyworm (Spodoptera frugiperda). After 6 days, the efficacy in % is determined. 100% means that all the caterpillars have been killed; 0% means that no caterpillar has been killed.
# Meloidogyne incognita [2] = assay: Meloidogyne incognita drench test (MELGIN D); conditions: soil, 504 h, 21 dat, read-out: % efficacy
# Protocol: [table] To produce an appropriate active ingredient formulation, 1 part by weight of active ingredient is mixed with the specified amounts of solvent and emulsifier and the concentrate is diluted to the desired concentration with water, it being necessary to take into account the volume of soil into which drenching is effected. It should be ensured that a concentration of 20 ppm of emulsifier in the soil is not exceeded. For production of further test concentrations, the mixture is diluted with water. Pots filled with soil (loamy sand) are drenched with the active ingredient solution. An egg/larvae suspension of the southern root-knot nematode (Meloidogyne incognita) is added, and lettuce seeds are scattered over the soil surface and covered with quartz sand. The lettuce seeds germinate and the seedlings develop. The root-knots develop on the roots. After the desired time, the nematicidal effect is determined with reference to the root-knot formation in %. 100% means that no root-knots were found; 0% means that the number of root-knots on the treated plants corresponds to that on the untreated control.
SMILES,efficacy (kill) (Musca domestica) [%],pest or weed control at 20 ppm (Meloidogyne incognita [1]) [%],pest or weed control at 0.8 ppm (Myzus persicae) [%],Emax at 4 ppm (Aphis gossypii) [%],Emax at 20 ppm (Phaedon cochleariae) [%],Emax at 4 g/ha (Nilaparvata lugens) [%],efficacy (Spodoptera frugiperda) [%],Emax at 4 ppm (Phaedon cochleariae; 4 ppm) [%],Emax at 1 ppm (Meloidogyne incognita [2]; 1 ppm) [%],Emax at 2 ppm (Meloidogyne incognita [2]; 2 ppm) [%]
CCS(=O)(=O)c1ccc(NC(=O)N(C)C)nc1-c1nc2cc(C(F)(F)C(F)(F)F)nnc2n1C [Example I-10],90,100,100,75,80,90,,,,
CCS(=O)(=O)c1ccc(N(C)C(=O)NC)nc1-c1nc2cc(C(F)(F)C(F)(F)F)nnc2n1C [Example I-09],,100,90,,,,,,,
CCNC(=O)Nc1ccc(S(=O)(=O)CC)c(-c2nc3cc(C(F)(F)C(F)(F)F)nnc3n2C)n1 [Example I-13],80,100,100,,,,83,,,
"CCS(=O)(=O)c1ccc(NC(=O)NC)nc1-c1nc2cc(C(F)(F)C(F)(F)F)nnc2n1C [Example I-08, 1-{5-(ethylsulfonyl)-6-[7-methyl-3-(pentafluoroethyl)-7H-imidazo[4,5-c]pyridazin-6-yl]pyridin-2-yl}-3-methylurea]",,100,90,95,90,,,70,100,100
